Data set [1] has as its target T1, urease (Canavalia ensiformis, UniProt P07374). Kind of data set: biochemical. As for the experimental part: The indophenol method was adopted for the estimation of urease inhibition activity for synthesized compounds with minor modification. In the assay, the total volume was kept at 100 µL which was composed of 10 µL urease having a concentration of 5 U/mL, 40 µL of phosphate buffer (0.01mM K2HPO4+ EDTA + […]); pH was adjusted to 8.15 using 40 µL of phenol reagent (1%, phenol, and sodium nitroprusside) and alkali reagent. This alkali reagent was composed of 0.5% of sodium hydroxide and 0.1% of active chloride (NaOCl). For the determination of urease activity, the test compound and enzyme were incubated for 30 min at 37 °C in the assay buffer; then phenol/alkali reagent was added. All reactions were performed in 96 well plates in a triplicate manner. Absorbance was measured at a wavelength of 625 nm using the instrument FLUOstar® Omega (BMG LABTECH, Ortenberg, Germany). Initially, the percentage inhibition was estimated for the test compounds and compared with a standard inhibitor of urease (thioureas). […] GraphPad (PRISM 8.0, San Diego, CA, USA) was utilized for the calculations of IC50 values. The synthesized compounds were dissolved in absolute ethanol for the percentage inhibition assay whereas dilutions were prepared in deionized water by keeping the final concentration at up to 1%. The standard inhibitor (thioureas) was used as a positive control in the assay whereas 1% ethanol was employed as a negative control during the assay.

Data set [2] deals with T1, urease. The data set is described as follows: Enzyme kinetics study (Lineweaver–Burk plot) of urease inhibition. Type of data set: biochemical. Conditions: compound 0.10-1.6 µM. From the text: By calculating the Lineweaver–Burk plot, the competitive mode of inhibition was shown by the compound Rx-6.

From publication PMC9609714, “Exploring Novel Pyridine Carboxamide Derivatives as Urease Inhibitors: Synthesis, Molecular Docking, Kinetic Studies and ADME Profile” (Pharmaceuticals, 2022) come the findings set out here.

Read-outs that look alike come from different tables or passages of the source.

Broadly, the IC50 is the concentration needed to halve the response being measured. By melting point is commonly meant the temperature of the solid-liquid transition.

T1 sequence (P07374 whole entry, looked up): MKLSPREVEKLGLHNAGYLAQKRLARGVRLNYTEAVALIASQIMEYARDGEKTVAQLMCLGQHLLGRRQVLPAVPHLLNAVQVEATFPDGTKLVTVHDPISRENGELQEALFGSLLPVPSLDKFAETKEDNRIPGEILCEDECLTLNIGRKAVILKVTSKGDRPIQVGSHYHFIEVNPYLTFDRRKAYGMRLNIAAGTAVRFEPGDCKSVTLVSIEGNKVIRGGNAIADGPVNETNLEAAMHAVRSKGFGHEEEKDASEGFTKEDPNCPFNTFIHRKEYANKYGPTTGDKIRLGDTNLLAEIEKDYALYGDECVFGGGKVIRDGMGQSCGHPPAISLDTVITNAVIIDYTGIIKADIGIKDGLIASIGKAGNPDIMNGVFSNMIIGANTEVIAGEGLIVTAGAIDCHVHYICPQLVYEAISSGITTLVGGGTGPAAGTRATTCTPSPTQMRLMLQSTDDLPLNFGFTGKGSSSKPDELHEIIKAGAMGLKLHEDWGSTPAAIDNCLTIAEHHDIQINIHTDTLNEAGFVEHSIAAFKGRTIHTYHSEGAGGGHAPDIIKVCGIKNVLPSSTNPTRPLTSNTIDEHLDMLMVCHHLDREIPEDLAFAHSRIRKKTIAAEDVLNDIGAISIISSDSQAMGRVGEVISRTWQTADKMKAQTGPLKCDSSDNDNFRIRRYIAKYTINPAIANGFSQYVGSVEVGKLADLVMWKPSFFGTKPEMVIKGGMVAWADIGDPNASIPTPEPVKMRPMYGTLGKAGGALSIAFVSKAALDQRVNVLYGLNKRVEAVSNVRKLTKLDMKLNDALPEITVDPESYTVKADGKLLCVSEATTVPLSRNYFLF

`N/C(S)=N/N=C/c1ccccn1` [Rx-1, Pyridine-2-yl-methylene thiosemicarbazide] had a half-inhibitory concentration (IC50) against urease [1] of 3.23 ± 0.015 µM.
The compound `Cc1cccc(/C=N/NC(N)=S)n1` [Rx-2, 6-Methylpyridine-2-yl methylene hydrazine-1-carbothioamide] returned an IC50 at urease [1] of 6.41 ± 0.023 µM.
In turn, `NC(=S)N/N=C/c1cccc(Br)n1` [Rx-3, 6-Bromopyridine-2-yl methylene hydrazine-1-carbothioamide] had a melting point of 192 to 194 °C. Further, at urease [1], half-maximal inhibition (IC50) required 3.13 ± 0.034 µM.
At urease [1], `COc1cccc(/C=N/NC(N)=S)n1` [Rx-4, 6-Methoxypyridine-2-yl methylene thiosemicarbazide] gave an IC50 of 4.21 ± 0.022 µM.
Compound `NC(=S)N/N=C/c1cccc(C(F)(F)F)n1` [Rx-5, 6-Trifluoromethyl pyridine-2-yl methylene hydrazine-1-carbothioamide] returned a concentration for half-maximal inhibition (IC50) on urease [1] of 4.93 ± 0.012 µM.
Regarding `NC(=S)N/N=C/c1ccc(Cl)cn1` [Rx-6, 5-Chloropyridine-2-yl methylene hydrazinecarbothioamide], the melting point was in the range of 244 to 246 °C. At urease [1], this compound yielded an IC50 of 1.07 ± 0.043 µM. Besides, the “mode of inhibition (Lineweaver–Burk plot)” value on urease [2] is “competitive”.
For the compound `NC(=O)N/N=C/c1ccccn1` [Rx-7, 2-Pyridine-2-yl-methylene hydrazine carboxamide], the midpoint of inhibition at urease [1], the IC50, lay at 2.18 ± 0.058 µM.
For the compound `Cc1cccc(/C=N/NC(N)=O)n1` [Rx-8, 6-Methylpyridine-2-yl methylene hydrazinecarboxamide], the melting point is 218 to 219 °C. The same compound gave a half-inhibitory concentration (IC50) at urease [1] of 3.41 ± 0.011 µM.
`NC(=O)N/N=C/c1cccc(Br)n1` [Rx-9, 6-Bromopyridine-2-yl methylene hydrazinecarboxamide] yielded a melting point of 231 to 233 °C. Half-maximal inhibition at urease [1] (IC50) required 14.49 ± 0.067 µM.
`COc1cccc(/C=N/NC(N)=O)n1` [Rx-10, 6-Methoxypyridine-2-yl methylene hydrazine carboxamide] came in with a melting point of 193 °C. The same compound gave an IC50 at urease [1] of 5.52 ± 0.072 µM.
`NC(=O)N/N=C/c1cccc(C(F)(F)F)n1` [Rx-11, 6-Trifluoromethyl pyridine-2-yl methylene hydrazine carboxamide] had a melting point of 233 to 235 °C. At urease [1], the IC50 came to 5.96 ± 0.005 µM.
`NC(=O)N/N=C/c1ccc(Cl)cn1` [Rx-12, 5-Chloropyridine-2yl-methylene hydrazine carboxamide] came in with a melting point of 221 to 223 °C. The compound further came in with an IC50 on urease [1] of 4.07 ± 0.003 µM.
For the compound `NC(N)=S` [Thiourea, reference compound], the IC50 on urease [1] (urease 5 U/mL, 30 min at 37 °C, pH 8.15, triplicate, read-out: IC50 ± SEM) was determined as 18.93 ± 0.004 µM.
